According to patent publication US11034666B2, “Anti-inflammatory and antitumor 2-oxothiazoles and 2-oxothiophenes compounds” (Avexxin AS, priority 2013, dated 2021):
Read-outs that look alike come from different tables or passages of the source.

What was measured:
[1] = target: T1, human GIVA cPLA2 (Homo sapiens, UniProt P47712); assay: In vitro vesicle assay, cPLA2; type: biochemical
T1 sequence (P47712 1-749): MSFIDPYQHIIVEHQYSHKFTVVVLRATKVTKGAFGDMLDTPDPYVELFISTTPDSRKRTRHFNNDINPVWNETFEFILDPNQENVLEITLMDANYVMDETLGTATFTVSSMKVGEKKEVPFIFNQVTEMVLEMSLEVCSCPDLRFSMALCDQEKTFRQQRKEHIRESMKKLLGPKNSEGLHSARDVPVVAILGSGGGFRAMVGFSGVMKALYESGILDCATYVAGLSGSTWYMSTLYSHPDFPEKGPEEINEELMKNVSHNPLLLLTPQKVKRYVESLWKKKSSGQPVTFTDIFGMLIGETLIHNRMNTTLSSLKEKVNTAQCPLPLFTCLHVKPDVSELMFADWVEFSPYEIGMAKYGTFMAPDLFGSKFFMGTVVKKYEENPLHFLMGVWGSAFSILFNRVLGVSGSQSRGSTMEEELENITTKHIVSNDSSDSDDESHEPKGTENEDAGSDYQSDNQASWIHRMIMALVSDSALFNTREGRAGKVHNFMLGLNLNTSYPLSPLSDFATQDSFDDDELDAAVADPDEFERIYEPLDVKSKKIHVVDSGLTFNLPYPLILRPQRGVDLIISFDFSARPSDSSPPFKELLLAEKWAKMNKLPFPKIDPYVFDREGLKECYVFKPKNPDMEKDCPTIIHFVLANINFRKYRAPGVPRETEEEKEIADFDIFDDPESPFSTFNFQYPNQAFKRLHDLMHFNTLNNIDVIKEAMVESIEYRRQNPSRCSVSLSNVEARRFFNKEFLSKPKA
Method: The effect of the oxothiazoles synthesized on GIVA cPLA2 was measured in vesicles as previously described^51,52 with modifications.^53 The results are presented in Table 6 and are in full agreement with those using the micellar assay. […] From both assays, it is clear that the introduction of the ethyl ester group directly on the heterocyclic ring substantially increases the potency of inhibition. This group presumably develops additional interactions within the enzyme's active site. Comparing the results obtained in mixed micelles and in vesicles is obvious that Compound A stands out in this series of oxothiazoles
GIVA cPLA2 was measured as described^51,52 with modifications.^53 In short, recombinant human GIVA cPLA2 enzyme was pre-incubated with DMSO (1%) with or without inhibitor in assay buffer (80 sec at 37° C., 10 min at 25° C.). Lipid vesicles of L-α-1-palmitoyl-2-arachidonyl-[arachidonyl-1-^14C]-phosphatidylcholine (4.3 nmol) were dried under a steam of N2 (g). The dried lipid was re-suspended in 2 ml assay buffer and sonicated twice (7 min, output 3.5 and 50% duty cycles, on ice) in a Branson Sonifier 250 (Branson Ultrasonic Corporation, Danbury, Conn.). Sonicated lipid (0.2 μM) was added to the reaction and incubated for 1 h at 37° C. followed by addition of a chloroform/methanol stop buffer to terminate the enzymatic reaction. The reaction mixture was separated by centrifugation (5 min, 1640×g). The lower phase was transferred to a glass tube and dried under a steam of N2 (g), re-suspended in chloroform/methanol (9:1, by volume) and applied to a silica gel. Free [1-^14C]arachidonic acid and, L-α-1-palmitoyl-2-arachidonyl-[arachidonyl-1-^14C]-phosphatidylcholine were separated by thin layer chromatography and analyzed as previously described.^54

[2] = system: AA release in SW982 cells; assay: Ex vivo cellular arachidonic acid (AA) release assay, IL-1β stimulated; type: cell-based, human; settings: for inhibition / IC50: Homo sapiens; for inhibition: % inhibition at 10 pM oxothiazole (so in the source), read-out: AA release % Inhib
Method: The effect of the oxothiazoles synthesized on the release of AA and OA in synoviocytes was evaluated as previously described.^54 The percent inhibition of AA and OA was determined at a 10 μM inhibitor concentration, while for the determination of the IC50 value the inhibitors were tested in a 0-20 μM range after IL-1β stimulation for 4 h.
The human synovial sarcoma cell line SW982 was from ATCC (UK) and was used as a model system to monitor AA/OA release and activation of GIVA cPLA2. SW982 cells were passaged bi-weekly by routine trypsin detachment and kept in a sub-confluent state. The cells were maintained in Dulbecco's Modified Eagle Medium (DMEM) supplemented with 10% FBS, 0.1 mg/mL gentamicin and 0.3 mg/mL L-glutamine at 37° C. with 10% CO2. For AA release, 5*10^5 cells were seeded pr well in a 48-well per plate format. Experiments were performed at 3 days post-confluency following overnight serum deprivation in serum-free DMEM to ensure differentiation and synchronization of the cells.
AA and OA release was analyzed as previously described.^54 At 2 days post-confluency, SW982 cells were serum-starved and labelled overnight with ^3H-AA (0.4 μCi/ml) and ^14C-OA (0.067 μCi/ml) in serum-free DMEM. Prior to the addition of oxothiazoles, the cells were washed twice with PBS containing fBSA (2 mg/ml) and PBS in order to remove unincorporated radioactivity. Cells were pretreated (1 h) with oxothiazoles prior to IL-1β stimulation (10 ng/mL, 4 h). Following IL-1β stimulation, the supernatants were cleared of detached cells by centrifugation (13000 rpm, 5 min). The release of ^3H-AA and ^14C-OA from the cells was assessed by liquid scintillation counting (LS 6500 Multi-Purpose Scintillation Counter, Beckman Coulter, Inc (USA). Adherent cells were dissolved in 1N NaOH in order to determine incorporated ^3H-AA and ^14C-OA in the cells by liquid scintillation counting. In all experiments, DMSO was included for vehicle control ([…]0.05%).
Following treatments, cells were routinely observed by microscopy to ensure unaltered cell morphology, integrity and viability. The results are given as inhibition of released ^3H-AA and ^14C-OA in the supernatants relative to total ^3H-AA and ^14C-OA incorporated into the cells, from at least three independent experiments performed in triplicates.

[3] = % inhibition at 1 μM oxothiazole, read-out: cPLA2 vesicle assay % Inhib
[4] = inhibitors tested in 0-3 μM range, read-out: cPLA2 vesicle assay IC50 (μm)
[5] = SW982 synoviocytes, 4 h IL-1β stimulation
[6] = SW982 synoviocytes, tested in 0-20 μM range, 4 h IL-1β stimulation, read-out: AA release IC50
[7] = vesicles assay, read-out: IC50 on GIVA cPLA2 in vesicles assay
[8] = tested 0-5 μM, Tables 2 and 4, read-out: cPLA2 in vitro assay (0-5 μM) IC50
[9] = SW982 cells, tested 0-20 μM, Tables 2 and 4, read-out: AA release SW982 cells (0-20 μM) IC50

inhibition at 1 µM [1, 3] | IC50 [1, 4] | IC50 [2, 6] | IC50 [1, 8] | IC50 [2, 9] | inhibition at 1 µM ([1]; at 1 μM, printed in the IC50 column of Table 2, read-out: cPLA2 in vitro assay, % inh at 1 μM) | SMILES | inhibition [2, 5] | inhibition of the AA release (in words) ([2]; SW982 synoviocytes) | IC50 [1, 7]
21% | > 3 µM | > 20 µM |  |  |  | CCCCCCCCCCCCOCC(=O)c1nc(C(=O)OCC)cs1 [Compound W, Ethyl 2-(2-(dodecyloxy)acetyl)thiazole-4-carboxylate] | 9% | interesting inhibition | 
43% |  | 3.6 µM |  |  |  | CCCCCCCCc1ccc(OCC(=O)c2nccs2)cc1 [Compound T, 2-(4-Octylphenoxy)-1-(thiazol-2-yl)ethanone] | > 90% | interesting inhibition | 1.2 µM
0% |  |  |  |  |  | CCCCCCCCCCCCOCC(=O)c1nc(CC(=O)OCC)cs1 [Compound X, Ethyl 2-(2-(2-(dodecyloxy)acetyl)thiazol-4-yl)acetate] | 0% | interesting inhibition | 
7% | > 3 µM |  | > 5 µM | > 20 µM |  | O=C(COc1ccc(F)cc1)c1nccs1 [Compound C, 2-(4-Fluorophenoxy)-1-(thiazol-2-yl)ethanone] | 0% |  | 
25% | > 3 µM | 5 µM |  |  |  | CCCCCCCCc1ccc(OCC(=O)c2nc(CC(=O)OCC)cs2)cc1 [Compound Y, Ethyl 2-(2-(2-(4-octylphenoxy)acetyl)thiazol-4-yl)acetate] | 71% |  | 
26% | > 3 µM | > 20 µM | > 5 µM | > 20 µM |  | O=C(COc1ccccc1)c1nccs1 [Compound D, 2-Phenoxy-1-(thiazol-2-yl)ethanone] | 12% |  | 
26% | > 3 µM | 2.8 µM |  | ~2.5 µM | 35% | O=C(COc1ccc(-c2ccccc2)cc1)c1nccs1 [Compound B, 2-(Biphenyl-4-yloxy)-1-(thiazol-2-yl)ethanone] | 73% | interesting inhibition | 

SMILES | inhibition at 1 µM [1, 3] | IC50 [1, 4] | IC50 [2, 6] | IC50 [1, 8] | IC50 [2, 9] | inhibition at 1 µM ([1]; at 1 μM, printed in the IC50 column of Table 2, read-out: cPLA2 in vitro assay, % inh at 1 μM) | inhibition [2, 5] | inhibition of the AA release (in words) ([2]; SW982 synoviocytes) | IC50 [1, 7]
CCCCCCCCc1ccc(OCC(=O)c2nc(C(=O)OC)cs2)cc1 [Compound A, Methyl 2-(2-(4-octylphenoxy)acetyl)thiazole-4-carboxylate] | 74% |  | 0.6 µM | ~0.3 µM | ~0.6 µM |  | > 90% |  | 0.3 µM
